Drawing on PubChem BioAssay (NCI), this text covers TGI and GI50 for 14 compounds.

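1) Cells in 96-well plates. 2) Compound, 48 h, 5 concentrations. 3) Linear interpolation between surrounding doses. 4) Unreached endpoint = highest concentration. At the GI50, growth is halved. TGI denotes the concentration required for complete inhibition of growth.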

Among the test systems are SK-MEL-2 melanoma; LOX IMVI melanoma; SN12C renal; SF-268 CNS; HT29 colon; OVCAR-8 ovarian; HCT-15 colon; MOLT-4 leukemia; HS 578T breast; MDA-MB-231 breast; T-47D breast.
Holding throughout (test): NCI anticancer screen, dose series, 48 h

In the case of `COc1cc2c(c(OC)c1)C(=O)C(=O)C(CC1(C)OCCCO1)=C2`, the TGI in the assay on SK-MEL-2 melanoma is 30.3 µM; in the assay on LOX IMVI melanoma, 12.9 µM; with SN12C renal it was 26.8 µM; in the assay on SF-268 CNS, 30.1 µM; with HT29 colon, 35 µM; with OVCAR-8 ovarian, 28.6 µM. The TGI in the assay with HCT-15 colon is 17 µM; with MOLT-4 leukemia it was over 29.9 µM.

Turning to `CC(C)(Cl)C(Cl)CC/C(CBr)=C(\Cl)CBr` (configuration not stated), the TGI in the assay on SK-MEL-2 melanoma is 3.28 µM; with LOX IMVI melanoma, 0.72 µM; with SN12C renal, 6.15 µM; in the assay on HS 578T breast it was 4.54 µM; in the assay with MDA-MB-231 breast, 4.42 µM; with SF-268 CNS it was 7.67 µM. Besides, the TGI turned out to be 25 µM in the assay on HT29 colon, 3.92 µM in the assay with OVCAR-8 ovarian, 3.51 µM in the assay with HCT-15 colon and 2.32 µM with MOLT-4 leukemia.

As for `CCOC(=O)C1=C(C)C2C3C(=O)OC(=O)C3C1(C)C1C(=O)OC(=O)C21` (configuration not stated), the TGI in the assay with SK-MEL-2 melanoma, in the assay on LOX IMVI melanoma, in the assay with SN12C renal, with SF-268 CNS, with HT29 colon and with OVCAR-8 ovarian was over 100 µM each time. In addition, the TGI in the assay on HCT-15 colon and in the assay on MOLT-4 leukemia was over 100 µM throughout.

Turning to `C[n+]1ccc2/c(=C\C#N)c3ccccc3n21`, the TGI in the assay on SK-MEL-2 melanoma was 89.9 µM; in the assay on LOX IMVI melanoma it was 40.4 µM; in the assay with SN12C renal, over 100 µM; with SF-268 CNS it was over 100 µM; with HT29 colon it was 72.1 µM; in the assay on OVCAR-8 ovarian, over 100 µM. Also, the TGI in the assay with T-47D breast was 32.7 µM; in the assay on HCT-15 colon, over 100 µM; in the assay on MOLT-4 leukemia, over 100 µM.

Regarding `CCOC(OCC)[C@@H]1C[C@@H]2N(O[C@H](OC3CCCC3(c3ccccc3)c3ccccc3)[C@H](OC(C)=O)[C@@]2(CC)Cc2ccc(OC)c(OC)c2)O1` (some centres not stated), the TGI in the assay on SK-MEL-2 melanoma, in the assay with LOX IMVI melanoma, in the assay with SN12C renal, in the assay with MDA-MB-231 breast, with SF-268 CNS and in the assay with HT29 colon was over 100 µM each time. Further, the TGI in the assay with T-47D breast, in the assay on HCT-15 colon and in the assay on MOLT-4 leukemia was over 100 µM throughout.

Take `COc1ccccc1NC(=O)C(=O)C(c1cnc2ccc([N+](=O)[O-])cc2n1)[N+](=O)[O-]` (configuration not stated): the TGI with SK-MEL-2 melanoma, in the assay with LOX IMVI melanoma, in the assay on SN12C renal, in the assay with SF-268 CNS, in the assay with HT29 colon and with OVCAR-8 ovarian was over 100 µM each time. Also, the TGI in the assay with HCT-15 colon and with MOLT-4 leukemia was over 100 µM in each case.

`CC1=C(N2CC2)C(=O)C(C)=C(N2CC2)C1=O`: the TGI is 1.39 µM in the assay with SK-MEL-2 melanoma; 1.38 µM with LOX IMVI melanoma; 1.59 µM in the assay on SN12C renal; over 100 µM with MDA-MB-231 breast; 1.08 µM in the assay on SF-268 CNS; 1 µM with HT29 colon. Also, the TGI turned out to be 2.3 µM in the assay on OVCAR-8 ovarian, 15.5 µM in the assay on T-47D breast, 3.31 µM in the assay on HCT-15 colon and 13.5 µM in the assay on MOLT-4 leukemia.

For the compound `O=C(O)C1Cc2[nH]c3ccccc3c2C2CCCC12` (configuration not stated), the TGI in the assay with SK-MEL-2 melanoma, in the assay on LOX IMVI melanoma, with SN12C renal, in the assay on SF-268 CNS, with OVCAR-8 ovarian and in the assay with HCT-15 colon was over 100 µM in each case. The compound also gave a TGI with MOLT-4 leukemia of over 100 µM.

As for `CCCc1cn2c(/C=N/N=C(N)N)c(-c3ccc([N+](=O)[O-])cc3)nc2s1`, the TGI was 3.55 µM in the assay on SK-MEL-2 melanoma; 3.04 µM in the assay on LOX IMVI melanoma; 3.06 µM in the assay with SN12C renal; 3.51 µM in the assay with MDA-MB-231 breast; over 100 µM with HT29 colon; 3.21 µM in the assay with OVCAR-8 ovarian. Also, the TGI came to 2.71 µM in the assay on T-47D breast, 2.3 µM in the assay with HCT-15 colon and 0.441 µM in the assay with MOLT-4 leukemia.

Turning to `COc1cc(Cn2c3ccccc3c3cc(C)cc(OC)c32)cc2c1[nH]c1ccccc12`, the TGI in the assay on SK-MEL-2 melanoma, with LOX IMVI melanoma, in the assay with SN12C renal, in the assay on SF-268 CNS, in the assay on HT29 colon and with OVCAR-8 ovarian was over 25 µM each time. Moreover, the TGI in the assay with HCT-15 colon and in the assay with MOLT-4 leukemia was over 25 µM throughout. Moreover, the GI50 in the assay with LOX IMVI melanoma was 8.19 µM; in the assay on SF-268 CNS, 17.5 µM; in the assay with HT29 colon, 16.9 µM; in the assay with HCT-15 colon, 16.8 µM; with MOLT-4 leukemia it was 8.51 µM.

As to `CC(C)(C)C1CCC2c3c([nH]c4ccccc34)C3C(=O)N(c4cc(Cl)ccc4Cl)C(=O)C3C2C1` (configuration not stated), the TGI with SK-MEL-2 melanoma, with LOX IMVI melanoma, in the assay on SN12C renal, with HS 578T breast, in the assay with MDA-MB-231 breast and in the assay with HT29 colon was over 100 µM in each case. In addition, the TGI in the assay with OVCAR-8 ovarian, with HCT-15 colon and in the assay on MOLT-4 leukemia was over 100 µM throughout.

Consider `N#CCCN(c1ccc(C=Nc2ccc(C(=O)O)cc2)cc1)S(=O)(=O)c1ccccc1`, for which the TGI with SK-MEL-2 melanoma, in the assay with LOX IMVI melanoma, with SN12C renal, with SF-268 CNS, in the assay with HT29 colon and in the assay on OVCAR-8 ovarian was over 100 µM in each case. Also, the TGI in the assay on HCT-15 colon and in the assay on MOLT-4 leukemia was over 100 µM each time.

As for `CCN(CC)CCC(=O)Nc1ccc2sc3ccccc3c(=O)c2n1`, the TGI in the assay on SK-MEL-2 melanoma is 45.8 µM; in the assay with LOX IMVI melanoma it was 38.9 µM; in the assay with SN12C renal, 77.8 µM; in the assay on HS 578T breast, 46.1 µM; in the assay with SF-268 CNS, 48.5 µM; in the assay with HT29 colon, over 100 µM. Moreover, the TGI was 62.4 µM in the assay on OVCAR-8 ovarian, 45.9 µM in the assay with T-47D breast, 62.3 µM with HCT-15 colon and over 100 µM in the assay on MOLT-4 leukemia.

Consider `CCCC1(N2C(=O)c3ccc4c5c(ccc(c35)C2=O)N(C2(CCC)CCCCC2)C4=O)CCCCC1`, for which the TGI in the assay with SK-MEL-2 melanoma, with SN12C renal, in the assay on MDA-MB-231 breast, in the assay on SF-268 CNS, in the assay on HT29 colon and in the assay on OVCAR-8 ovarian was over 100 µM each time. Moreover, the TGI in the assay with T-47D breast, in the assay with HCT-15 colon and in the assay with MOLT-4 leukemia was over 100 µM throughout.
